Test results from patent US20260250290A1 (BRISTOL-MYERS SQUIBB COMPANY, priority 2023, published 2026).

Each molecule was assayed against T1, SGK1 (Homo sapiens, UniProt O00141) (assay: SGK1 inhibition Assay B (Echo mass spectrometry of phosphorylated peptide product)). Details: 60 min at room temperature.
T1 sequence (O00141 1-431): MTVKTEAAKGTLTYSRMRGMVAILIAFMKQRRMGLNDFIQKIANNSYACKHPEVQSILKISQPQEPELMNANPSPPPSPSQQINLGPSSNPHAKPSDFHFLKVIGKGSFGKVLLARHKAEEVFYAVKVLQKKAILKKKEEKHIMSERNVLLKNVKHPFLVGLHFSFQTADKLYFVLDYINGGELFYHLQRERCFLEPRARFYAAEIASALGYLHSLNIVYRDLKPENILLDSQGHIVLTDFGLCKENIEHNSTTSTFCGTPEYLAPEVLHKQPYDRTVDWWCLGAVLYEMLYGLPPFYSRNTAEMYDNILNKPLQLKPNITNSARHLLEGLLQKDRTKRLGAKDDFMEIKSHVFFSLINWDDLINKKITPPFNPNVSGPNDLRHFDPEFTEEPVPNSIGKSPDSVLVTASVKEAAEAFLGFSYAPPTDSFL
Assay type: biochemical

Row | Structure (SMILES) | IC50 [nM]
1 | CCC(CO)NC1CCC(Oc2nc(C)sc2C(=O)NC2CCCN(c3cc(C4=C(C)C(=O)OC4)n4ncnc(N)c34)C2)CC1 [Example 1009, N-((R)-1-(4-amino-7-(4-methyl-5-oxo-2,5-dihydrofuran-3-yl)pyrrolo[2,1-f][1,2,4]triazin-5-y1)piperidin-3-y1)-4-((4-(((S)-1-hydroxybutan-2-yl)amino)cyclohexyl)oxy)-2-methylthiazole-5-carboxamide] | 1.9
2 | CC[C@H](CO)N[C@H]1CC[C@@H](Oc2nc(C)sc2C(=O)N[C@@H]2CCCN(c3cc(C4=C(C)C(=O)OC4)n4ncnc(N)c34)C2)CC1 [Example 1010, N-((R)-1-(4-amino-7-(4-methyl-5-oxo-2,5~dihydrofuran~3-yl)pyrrolo[2,1-f][1,2,4]triazin-5-y1)piperidin-3-y1)-4-((4-(((R)-1-hydroxybutan-2-yl)amino)cyclohexyl)oxy)-2-methylthiazole-5-carboxamide] | 2.1
3 | CC1=C(c2cc(N3CCC[C@@H](NC(=O)c4sc(C)nc4O[C@H]4CC[C@@H](NC5CCOC5(C)C)CC4)C3)c3c(N)ncnn23)COC1=O (stereo partly drawn) [Example 1012, N—((R)-1-(4-amino-7-(4-methyl-5-oxo-2,5-dihydrofuran-3-yl)pyrrolo[2,1-f][1,2,4]triazin-5-yl)piperidin-3-yl)-4-(((1S,4S)-4-((2,2-dimethyltetrahydrofuran-3-yl)amino)cyclohexyl)oxy)-2-methylthiazole-5-carboxamide] | 1.1
4 | CC1=C(c2cc(N3CCC[C@@H](NC(=O)c4sc(C)nc4OC4CCC(N(C)C)CC4)C3)c3c(N)ncnn23)COC1=O (stereo partly drawn) [Example 1017, N—((R)-1-(4-amino-7-(4-methyl-5-oxo-2,5-dihydrofuran-3-yl)pyrrolo[2,1-f][1,2,4]triazin-5-yl)piperidin-3-yl)-4-(((1S,4S)-4-(dimethylamino)cyclohexyl)oxy)-2-(methyl-d3)thiazole-5-carboxamide] | 1.6
5 | CCC1=C(c2cc(N3CCC[C@@H](NC(=O)c4sc(C)nc4O[C@H]4CC[C@@H](N(C)C)CC4)C3)c3c(N)ncnn23)COC1=O [Example 1018, N—((R)-1-(4-amino-7-(4-ethyl-5-oxo-2,5-dihydrofuran-3-yl)pyrrolo[2,1-f][1,2,4]triazin-5-yl)piperidin-3-yl)-4-(((1S,4S)-4-(dimethylamino)cyclohexyl)oxy)-2-methylthiazole-5-carboxamide] | 0.8
6 | CCC1=C(c2cc(N3CCC[C@@H](NC(=O)c4sc(C)nc4OC4CCC(NC5CC5)CC4)C3)c3c(N)ncnn23)COC1=O (stereo partly drawn) [Example 1022, (R)-N-(1-(4-amino-7-(4-ethyl-5-oxo-2,5-dihydrofuran-3-yl)pyrrolo[2,1-f][1,2,4]triazin-5-yl)piperidin-3-y1)-4-((4-(cyclopropylamino)cyclohexyl)oxy)-2-methylthiazole-5-carboxamide] | 1.3
7 | Cc1nc(OC2CCC(NC(C)(C)C)CC2)c(C(=O)N[C@@H]2CCCN(c3cc(-c4ccc(S(C)(=O)=O)cn4)n4ncnc(N)c34)C2)s1 (stereo partly drawn) [Example 1026, (R)—N-(1-(4-amino-7-(5-(methylsulfonyl)pyridin-2-yl)pyrrolo[2,1-f][1,2,4]triazin-5-yl)piperidin-3-yl)-4-((4-(tert-butylamino)cyclohexyl)oxy)-2-methylthiazole-5-carboxamide] | 2.2
8 | COc1nccc(-c2cc(N3CCC[C@@H](NC(=O)c4sc(C)nc4O[C@H]4CC[C@@H](N(C)C)CC4)C3)c3c(N)ncnn23)n1 [Example 1028, N—((R)-1-(4-amino-7-(2-methoxypyrimidin-4-yl)pyrrolo[2,1-f][1,2,4]triazin-5-yl)piperidin-3-yl)-4-(((1S,4S)-4-(dimethylamino)cyclohexyl)oxy)-2-methylthiazole-5-carboxamide] | 1.7
9 | CCC(C)(C)N[C@H]1CC[C@@H](Oc2nc(C)sc2C(=O)N[C@@H]2CCCN(c3cc(-c4ccnc(OC)n4)n4ncnc(N)c34)C2)CC1 [Example 1030, (R)—N-(1-(4-amino-7-(2-methoxypyrimidin-4-yl)pyrrolo[2,1-f][1,2,4]triazin-5-yl)piperidin-3-yl)-2-methyl-4-((4-(tert-pentylamino)cyclohexyl)oxy)thiazole-5-carboxamide] | 0.9
10 | [2H]C([2H])([2H])N(C1CCC(Oc2nc(C)sc2C(=O)N[C@@H]2CCCN(c3cc(-c4ccnc(OC)n4)n4ncnc(N)c34)C2)CC1)C([2H])([2H])[2H] (stereo partly drawn) [Example 1032, (R)—N-(1-(4-amino-7-(2-methoxypyrimidin-4-yl)pyrrolo[2,1-f][1,2,4]triazin-5-yl)piperidin-3-yl)-4-((4-(bis(methyl-d3)amino)cyclohexyl)oxy)-2-methylthiazole-5-carboxamide] | 1.2
11 | Cc1nccc(-c2cc(N3CCC[C@@H](NC(=O)c4sc(C)nc4O[C@H]4CC[C@@H](N(C)C)CC4)C3)c3c(N)ncnn23)n1 [Example 1035, N—((R)-1-(4-amino-7-(2-methylpyrimidin-4-yl)pyrrolo[2,1-f][1,2,4]triazin-5-yl)piperidin-3-yl)-4-(((1S,4S)-4-(dimethylamino)cyclohexyl)oxy)-2-methylthiazole-5-carboxamide] | 0.8
12 | Cc1nccc(-c2cc(N3CCC[C@@H](NC(=O)c4sc(C)nc4O[C@H]4CC[C@@H](NC(C)C)CC4)C3)c3c(N)ncnn23)n1 [Example 1036, N—((R)-1-(4-amino-7-(2-methylpyrimidin-4-yl)pyrrolo[2,1-f][1,2,4]triazin-5-yl)piperidin-3-yl)-4-(((1S,4S)-4 (isopropylamino)cyclohexyl)oxy)-2-methylthiazole-5-carboxamide] | 0.1
13 | Cc1nccc(-c2cc(N3CCC[C@@H](NC(=O)c4sc(C)nc4OC4CCC(N5CCC5)CC4)C3)c3c(N)ncnn23)n1 (stereo partly drawn) [Example 1037, N—((R)-1-(4-amino-7-(2-methylpyrimidin-4-yl)pyrrolo[2,1-f][1,2,4]triazin-5-yl)piperidin-3-yl)-4-(((1S,4S)-4-(azetidin-1-yl)cyclohexyl)oxy)-2-methylthiazole-5-carboxamide] | 1.2

Further molecules by falling IC50, results first:

Row | IC50 [nM] | Structure (SMILES)
14 | 2.2 | CCNC1CCC(Oc2nc(C)sc2C(=O)N[C@@H]2CCCN(c3cc(C4=C(C)C(=O)OC4)n4ncnc(N)c34)C2)CC1 (stereo partly drawn) [Example 1011, (R)—N-(1-(4-amino-7-(4-methyl-5-oxo-2,5-dihydrofuran-3-yl)pyrrolo[2,1-f][1,2,4]triazin-5-yl)piperidin-3-yl)-4-((4-(ethylamino)cyclohexyl)oxy)-2-methylthiazole-5-carboxamide]
15 | 1.7 | [2H]C([2H])([2H])N([C@H]1CC[C@@H](Oc2nc(C)sc2C(=O)N[C@@H]2CCCN(c3cc(C4=C(C)C(=O)OC4)n4ncnc(N)c34)C2)CC1)C([2H])([2H])[2H] [Example 1013, N—((R)-1-(4-amino-7-(4-methyl-5-oxo-2,5-dihydrofuran-3-yl)pyrrolo[2,1-f][1,2,4]triazin-5-yl)piperidin-3-yl)-4-(((1S,4S)-4-(bis(methyl-d3)amino)cyclohexyl)oxy)-2-methylthiazole-5-carboxamide]
16 | 1.7 | COC[C@@H](C)NC1CCC(Oc2nc(C)sc2C(=O)N[C@@H]2CCCN(c3cc(-c4ccc(C(N)=O)c(F)n4)n4ncnc(N)c34)C2)CC1 (stereo partly shown) [Example 1040]
17 | 1.1 | [2H]C([2H])([2H])N(C1CCC(Oc2nc(C)sc2C(=O)N[C@@H]2CCCN(c3cc(-c4ccnc(OC)n4)n4ncnc(N)c34)C2)CC1)C([2H])([2H])[2H] (stereo partly drawn) [Example 1031, (R)—N-(1-(4-amino-7-(2-methoxypyrimidin-4-yl)pyrrolo[2,1-f][1,2,4]triazin-5-yl)piperidin-3-yl)-4-((4-(bis(methyl-d3)amino)cyclohexyl)oxy)-2-methylthiazole-5-carboxamide]
18 | 1 | [2H]C([2H])([2H])c1nc(O[C@H]2CC[C@@H](N(C)C)CC2)c(C(=O)N[C@@H]2CCCN(c3cc(C4=C(C)C(=O)OC4)n4ncnc(N)c34)C2)s1 [Example 1016, N—((R)-1-(4-amino-7-(4-methyl-5-oxo-2,5-dihydrofuran-3-yl)pyrrolo[2,1-f][1,2,4]triazin-5-yl)piperidin-3-yl)-4-(((1S,4S)-4-(dimethylamino)cyclohexyl)oxy)-2-(methyl-d3)thiazole-5-carboxamide]
19 | 1 | [2H]C([2H])([2H])Oc1nccc(-c2cc(N3CCC[C@@H](NC(=O)c4sc(C)nc4O[C@H]4CC[C@@H](N(C)C)CC4)C3)c3c(N)ncnn23)n1 [Example 1033, N—((R)-1-(4-amino-7-(2-(methoxy-d3)pyrimidin-4-yl)pyrrolo[2,1-f][1,2,4]triazin-5-yl)piperidin-3-yl)-4-(((1S,4S)-4-(dimethylamino)cyclohexyl)oxy)-2-methylthiazole-5-carboxamide]
20 | 0.9 | COc1cc(-c2cc(N3CCC[C@@H](NC(=O)c4sc(C)nc4OC4CCC(N5CCC5)CC4)C3)c3c(N)ncnn23)ccn1 (stereo partly shown) [Example 1038]
21 | 0.9 | Cc1nc(OC2CCC(N3CC(O)C3)CC2)c(C(=O)N[C@@H]2CCCN(c3cc(-c4ccc(C(N)=O)c(F)c4)n4ncnc(N)c34)C2)s1 (stereo partly drawn) [Example 1039, (R)—N-(1-(4-amino-7-(4-carbamoyl-3-fluorophenyl)pyrrolo[2,1-f][1,2,4]triazin-5-yl)piperidin-3-yl)-4-((4-(3-hydroxyazetidin-1-yl)cyclohexyl)oxy)-2-methylthiazole-5-carboxamide]
22 | 0.1 | COc1nccc(-c2cc(N3CCC[C@@H](NC(=O)c4sc(C)nc4O[C@H]4CC[C@@H](N5CCCC5)CC4)C3)c3c(N)ncnn23)n1 [Example 1029, N—((R)-1-(4-amino-7-(2-methoxypyrimidin-4-yl)pyrrolo[2,1-f][1,2,4]triazin-5-yl)piperidin-3-yl)-2-methyl-4-(((1s,4S)-4-(pyrrolidin-1-yl)cyclohexyl)oxy)thiazole-S-carboxamidemorpholinothiophene-2-carboxamide]
